This passage reports inhibition and fold change (FC) results from ChEMBL document CHEMBL5653631, “A Potent and Selective ULK1 Inhibitor Suppresses Autophagy and Sensitizes Cancer Cells to Nutrient Stress” (iScience, 2018).

Experiment [1] has as its target Calcium/calmodulin-dependent protein kinase type 1 (Homo sapiens) (UniProt Q14012). Put plainly: Inhibition of human recombinant CaMK1a at 40 nM in presence of ATP by radiometric assay relative to control.
In experiment [2] the target is T1, Serine/threonine-protein kinase STK11 (Homo sapiens) (UniProt Q15831).
T1 sequence (whole entry): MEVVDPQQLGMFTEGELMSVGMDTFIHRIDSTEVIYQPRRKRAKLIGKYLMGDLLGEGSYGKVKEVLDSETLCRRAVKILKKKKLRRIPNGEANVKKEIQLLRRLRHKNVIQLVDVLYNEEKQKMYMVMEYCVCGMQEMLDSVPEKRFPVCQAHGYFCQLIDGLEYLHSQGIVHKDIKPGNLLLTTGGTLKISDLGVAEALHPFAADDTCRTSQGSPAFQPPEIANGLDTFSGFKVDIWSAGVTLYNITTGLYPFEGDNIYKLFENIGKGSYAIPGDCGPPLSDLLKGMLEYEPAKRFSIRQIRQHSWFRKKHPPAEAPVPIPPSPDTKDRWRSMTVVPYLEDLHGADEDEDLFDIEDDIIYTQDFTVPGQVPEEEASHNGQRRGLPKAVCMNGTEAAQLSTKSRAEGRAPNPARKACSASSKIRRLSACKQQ
Put plainly: Inhibition of human recombinant LKB1 at 40 nM in presence of ATP by radiometric assay relative to control.

Experiment [3] has as its target Cyclin-dependent kinase 18 (Homo sapiens) (UniProt Q07002). Put plainly: Inhibition of human recombinant PCTAIRE3 at 40 nM in presence of ATP by radiometric assay relative to control.
In experiment [4] the target is T2, Serine/threonine-protein kinase 17B (Homo sapiens) (UniProt O94768).
T2 sequence (whole entry): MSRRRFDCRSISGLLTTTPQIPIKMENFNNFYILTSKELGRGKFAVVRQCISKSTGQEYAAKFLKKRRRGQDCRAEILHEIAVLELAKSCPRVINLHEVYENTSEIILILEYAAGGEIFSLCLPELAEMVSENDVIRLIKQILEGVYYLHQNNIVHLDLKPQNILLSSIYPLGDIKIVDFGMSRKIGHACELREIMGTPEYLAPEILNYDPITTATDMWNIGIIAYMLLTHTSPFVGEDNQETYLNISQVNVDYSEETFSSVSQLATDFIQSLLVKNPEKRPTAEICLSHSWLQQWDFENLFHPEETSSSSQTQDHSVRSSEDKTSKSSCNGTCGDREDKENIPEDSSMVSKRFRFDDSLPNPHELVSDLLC
Put plainly: Inhibition of human recombinant DRAK2 at 40 nM related to control ULK1.

Experiment [5] concerns the target Fibroblast growth factor receptor 1 (Homo sapiens) (UniProt P11362). Put plainly: Inhibition of human recombinant FGFR1 at 500 nM in presence of ATP by radiometric assay relative to control.
In experiment [6] the target is Glycogen synthase kinase-3 alpha (Homo sapiens) (UniProt P49840). Put plainly: Inhibition of human recombinant GSK3A at 500 nM in presence of ATP by radiometric assay relative to control.
Experiment [7] addresses T3, Serine/threonine-protein kinase Nek3 (Homo sapiens) (UniProt P51956).
T3 sequence (whole entry): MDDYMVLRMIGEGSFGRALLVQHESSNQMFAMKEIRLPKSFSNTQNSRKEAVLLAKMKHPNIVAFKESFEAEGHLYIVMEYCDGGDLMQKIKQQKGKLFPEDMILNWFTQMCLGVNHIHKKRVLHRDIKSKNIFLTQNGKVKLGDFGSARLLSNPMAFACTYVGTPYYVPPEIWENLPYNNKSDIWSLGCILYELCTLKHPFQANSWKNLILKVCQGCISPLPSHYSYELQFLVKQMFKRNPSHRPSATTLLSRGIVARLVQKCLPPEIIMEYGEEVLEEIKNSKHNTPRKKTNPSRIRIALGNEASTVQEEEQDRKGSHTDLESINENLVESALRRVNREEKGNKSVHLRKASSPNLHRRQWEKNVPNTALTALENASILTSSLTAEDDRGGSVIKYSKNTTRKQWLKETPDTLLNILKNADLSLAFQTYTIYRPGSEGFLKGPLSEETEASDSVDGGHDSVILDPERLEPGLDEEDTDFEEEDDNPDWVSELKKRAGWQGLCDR
The experiment is described as follows: Inhibition of human recombinant NEK3 at 500 nM related to control ULK1.

The species entered for another experiment is Homo sapiens. The experiment is described as follows: Inhibition of human recombinant KHS1 at 15 nM in presence of ATP by radiometric assay relative to control.
Experiment [8] addresses Serine/threonine-protein kinase N2 (Homo sapiens) (UniProt Q16513). Put plainly: Inhibition of human recombinant PKN2 at 15 nM in presence of ATP by radiometric assay relative to control.
In experiment [9] the target is Tyrosine-protein kinase CSK (Homo sapiens) (UniProt P41240). The experiment is described as follows: Inhibition of human recombinant CSK at 15 nM related to control ULK1.
The target of experiment [10] is T4, Dual specificity tyrosine-phosphorylation-regulated kinase 2 (Homo sapiens) (UniProt Q92630).
T4 sequence (whole entry): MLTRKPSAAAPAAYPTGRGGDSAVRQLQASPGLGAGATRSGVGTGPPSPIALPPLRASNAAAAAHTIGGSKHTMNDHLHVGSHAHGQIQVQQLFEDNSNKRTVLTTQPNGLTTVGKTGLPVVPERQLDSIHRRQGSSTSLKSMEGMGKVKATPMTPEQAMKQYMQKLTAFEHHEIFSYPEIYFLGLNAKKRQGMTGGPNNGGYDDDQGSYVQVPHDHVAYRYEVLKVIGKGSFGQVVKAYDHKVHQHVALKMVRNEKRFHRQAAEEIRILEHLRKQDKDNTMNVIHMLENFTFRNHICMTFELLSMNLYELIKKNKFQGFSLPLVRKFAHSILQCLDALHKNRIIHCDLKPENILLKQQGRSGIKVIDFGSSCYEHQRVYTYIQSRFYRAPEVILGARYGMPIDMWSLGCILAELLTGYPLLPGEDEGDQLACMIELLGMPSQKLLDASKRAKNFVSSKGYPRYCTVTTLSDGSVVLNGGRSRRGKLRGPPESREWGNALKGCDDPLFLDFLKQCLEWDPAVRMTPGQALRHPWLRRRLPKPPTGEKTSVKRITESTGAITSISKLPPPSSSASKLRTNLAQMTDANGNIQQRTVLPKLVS
The experiment is described as follows: Inhibition of human recombinant DYRK2 at 15 nM related to control ULK1.

Experiment [11] deals with MAP kinase-activated protein kinase 3 (Homo sapiens) (UniProt Q16644). Put plainly: Inhibition of human recombinant MAPKAPK3 at 15 nM related to control ULK1.
Chain of MAP kinase-activated protein kinase 3 (Homo sapiens) (Q16644 whole entry, looked up): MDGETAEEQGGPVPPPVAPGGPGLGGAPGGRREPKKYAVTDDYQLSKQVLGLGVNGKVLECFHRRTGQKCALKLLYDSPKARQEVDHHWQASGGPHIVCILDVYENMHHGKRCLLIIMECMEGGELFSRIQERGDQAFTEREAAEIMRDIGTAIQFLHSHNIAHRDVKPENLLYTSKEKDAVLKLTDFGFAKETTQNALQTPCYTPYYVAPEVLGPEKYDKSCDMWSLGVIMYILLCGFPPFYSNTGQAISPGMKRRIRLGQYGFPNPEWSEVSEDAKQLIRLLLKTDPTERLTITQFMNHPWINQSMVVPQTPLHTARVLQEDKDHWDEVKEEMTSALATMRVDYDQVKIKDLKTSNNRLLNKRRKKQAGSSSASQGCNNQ

Chain of Serine/threonine-protein kinase N2 (Homo sapiens) (Q16513 whole entry, looked up): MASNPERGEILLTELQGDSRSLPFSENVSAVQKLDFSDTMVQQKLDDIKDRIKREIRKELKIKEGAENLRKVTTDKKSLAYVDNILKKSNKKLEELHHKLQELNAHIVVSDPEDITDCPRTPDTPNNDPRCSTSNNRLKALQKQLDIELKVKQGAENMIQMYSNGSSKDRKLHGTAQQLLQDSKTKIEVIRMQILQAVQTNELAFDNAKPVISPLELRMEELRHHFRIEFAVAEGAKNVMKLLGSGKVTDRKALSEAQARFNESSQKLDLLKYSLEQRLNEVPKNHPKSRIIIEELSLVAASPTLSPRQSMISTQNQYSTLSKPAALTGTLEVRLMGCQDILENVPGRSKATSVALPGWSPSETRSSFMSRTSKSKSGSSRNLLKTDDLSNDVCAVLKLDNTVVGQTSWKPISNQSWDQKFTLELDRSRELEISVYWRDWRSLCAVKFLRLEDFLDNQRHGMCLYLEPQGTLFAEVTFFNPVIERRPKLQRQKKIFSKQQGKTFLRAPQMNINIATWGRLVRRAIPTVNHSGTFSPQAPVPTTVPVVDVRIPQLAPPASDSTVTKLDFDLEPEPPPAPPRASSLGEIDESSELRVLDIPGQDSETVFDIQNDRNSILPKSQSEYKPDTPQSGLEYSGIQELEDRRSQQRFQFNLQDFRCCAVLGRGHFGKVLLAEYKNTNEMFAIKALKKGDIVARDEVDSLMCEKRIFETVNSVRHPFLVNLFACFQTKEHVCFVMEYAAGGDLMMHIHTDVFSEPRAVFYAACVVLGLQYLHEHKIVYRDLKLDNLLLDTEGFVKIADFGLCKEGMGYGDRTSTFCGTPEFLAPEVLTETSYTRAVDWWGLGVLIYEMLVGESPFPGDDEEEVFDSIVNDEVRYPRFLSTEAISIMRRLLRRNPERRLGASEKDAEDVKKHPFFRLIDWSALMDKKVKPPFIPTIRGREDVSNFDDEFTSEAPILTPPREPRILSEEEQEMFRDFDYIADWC
Chain of Calcium/calmodulin-dependent protein kinase type 1 (Homo sapiens) (Q14012 whole entry, looked up): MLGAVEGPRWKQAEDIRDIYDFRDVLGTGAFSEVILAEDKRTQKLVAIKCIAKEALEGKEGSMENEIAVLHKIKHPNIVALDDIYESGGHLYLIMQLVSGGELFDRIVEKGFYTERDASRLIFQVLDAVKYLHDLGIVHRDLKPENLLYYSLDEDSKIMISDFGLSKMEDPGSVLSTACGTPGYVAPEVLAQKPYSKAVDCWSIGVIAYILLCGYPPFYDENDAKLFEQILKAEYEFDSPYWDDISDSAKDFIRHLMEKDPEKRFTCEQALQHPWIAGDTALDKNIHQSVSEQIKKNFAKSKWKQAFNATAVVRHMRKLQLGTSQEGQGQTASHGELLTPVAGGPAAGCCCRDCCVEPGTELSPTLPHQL
Chain of Fibroblast growth factor receptor 1 (Homo sapiens) (P11362 22-822 limits assumed): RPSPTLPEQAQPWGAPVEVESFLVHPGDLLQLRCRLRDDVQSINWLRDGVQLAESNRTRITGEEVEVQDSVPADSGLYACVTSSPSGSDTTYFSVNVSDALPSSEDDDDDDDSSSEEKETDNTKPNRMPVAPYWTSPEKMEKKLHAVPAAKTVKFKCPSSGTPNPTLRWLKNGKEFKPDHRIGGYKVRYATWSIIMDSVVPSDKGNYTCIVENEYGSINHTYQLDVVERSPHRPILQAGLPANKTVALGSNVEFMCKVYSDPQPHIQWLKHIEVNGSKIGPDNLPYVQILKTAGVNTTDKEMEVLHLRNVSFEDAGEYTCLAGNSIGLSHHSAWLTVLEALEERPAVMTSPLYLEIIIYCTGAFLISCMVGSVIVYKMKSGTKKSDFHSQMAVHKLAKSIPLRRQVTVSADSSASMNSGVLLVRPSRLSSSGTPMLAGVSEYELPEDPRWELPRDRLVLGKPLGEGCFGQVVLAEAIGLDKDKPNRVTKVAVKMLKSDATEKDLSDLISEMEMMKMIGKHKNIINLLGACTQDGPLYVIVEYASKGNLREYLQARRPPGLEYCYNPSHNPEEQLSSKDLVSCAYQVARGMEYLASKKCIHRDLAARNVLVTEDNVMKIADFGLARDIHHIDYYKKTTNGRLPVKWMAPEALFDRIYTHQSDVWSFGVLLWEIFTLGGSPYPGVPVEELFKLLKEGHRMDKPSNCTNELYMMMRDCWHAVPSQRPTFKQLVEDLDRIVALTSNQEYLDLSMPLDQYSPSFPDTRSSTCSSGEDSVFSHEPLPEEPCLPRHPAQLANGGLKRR
Chain of Cyclin-dependent kinase 18 (Homo sapiens) (Q07002 whole entry): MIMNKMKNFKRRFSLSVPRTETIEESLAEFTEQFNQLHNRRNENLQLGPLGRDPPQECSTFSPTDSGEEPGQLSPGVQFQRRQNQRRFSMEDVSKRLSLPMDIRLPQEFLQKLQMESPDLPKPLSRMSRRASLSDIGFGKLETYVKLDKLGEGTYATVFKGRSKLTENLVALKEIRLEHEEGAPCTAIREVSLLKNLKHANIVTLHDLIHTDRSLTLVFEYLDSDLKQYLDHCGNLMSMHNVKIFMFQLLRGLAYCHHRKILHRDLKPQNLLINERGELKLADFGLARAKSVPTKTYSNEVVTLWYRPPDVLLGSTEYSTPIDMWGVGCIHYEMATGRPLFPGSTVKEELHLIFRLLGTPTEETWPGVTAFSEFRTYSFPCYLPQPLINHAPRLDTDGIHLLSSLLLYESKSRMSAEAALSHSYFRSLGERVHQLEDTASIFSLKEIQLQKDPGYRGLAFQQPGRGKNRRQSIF
Chain of Tyrosine-protein kinase CSK (Homo sapiens) (P41240 2-450 limits assumed): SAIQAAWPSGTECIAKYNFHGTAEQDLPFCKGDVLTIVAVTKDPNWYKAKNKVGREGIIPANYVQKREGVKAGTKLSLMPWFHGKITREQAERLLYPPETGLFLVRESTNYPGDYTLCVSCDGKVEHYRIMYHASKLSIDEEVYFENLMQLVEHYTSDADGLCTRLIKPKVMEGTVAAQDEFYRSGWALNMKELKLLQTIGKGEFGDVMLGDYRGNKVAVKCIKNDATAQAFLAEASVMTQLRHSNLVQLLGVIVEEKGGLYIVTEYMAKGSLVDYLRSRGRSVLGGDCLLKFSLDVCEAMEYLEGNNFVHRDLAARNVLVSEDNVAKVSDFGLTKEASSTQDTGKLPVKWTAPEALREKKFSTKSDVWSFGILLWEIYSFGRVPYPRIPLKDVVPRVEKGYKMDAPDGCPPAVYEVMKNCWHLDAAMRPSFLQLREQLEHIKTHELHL
Chain of Glycogen synthase kinase-3 alpha (Homo sapiens) (P49840 2-483 limits assumed): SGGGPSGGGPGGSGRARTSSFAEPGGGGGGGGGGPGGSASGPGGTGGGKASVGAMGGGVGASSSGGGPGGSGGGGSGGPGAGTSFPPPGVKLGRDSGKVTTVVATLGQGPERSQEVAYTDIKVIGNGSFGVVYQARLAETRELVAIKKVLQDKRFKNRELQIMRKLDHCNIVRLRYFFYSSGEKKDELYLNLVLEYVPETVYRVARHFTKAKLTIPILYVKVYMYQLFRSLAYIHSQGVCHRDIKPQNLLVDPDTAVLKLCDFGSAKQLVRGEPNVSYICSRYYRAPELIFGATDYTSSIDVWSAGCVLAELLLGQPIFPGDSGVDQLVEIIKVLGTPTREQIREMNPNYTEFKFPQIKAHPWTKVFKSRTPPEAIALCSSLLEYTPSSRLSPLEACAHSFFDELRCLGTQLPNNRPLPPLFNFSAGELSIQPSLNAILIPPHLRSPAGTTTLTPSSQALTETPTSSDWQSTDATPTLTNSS

As for `O=C(N[C@@H](C1CC1)C(F)(F)F)c1cc(-c2cnn3cc(-c4ccc(F)cc4)cnc23)cs1`, the inhibition (in general, the relative decrease from the control value, in per cent) in [1] turned out to be 0%; in experiment [2], 13%; in experiment [3], 31%. For the same compound, the fold change (FC) in [4] was found to be 0.53.

Turning to `CNC(=O)c1ccccc1Oc1nc(Nc2cc(OC)c(OC)c(OC)c2)ncc1Br`, the inhibition in experiment [5] turned out to be 35%; in [6], 0%. Besides, in experiment [7], the fold change (FC) was determined as 0.09.

Take `CC(C)[C@H](NC(=O)c1cc(-c2cnn3cc(-c4ccc(OCCN5CCCCC5)cc4)cnc23)cs1)C(F)(F)F`: the inhibition in the experiment listed under Homo sapiens was determined as 14%; in experiment [8], 0%. Also, the fold change (FC) in experiment [9] stood at 0.14; in experiment [10], 0.09; in [11], 0.
